The values below come from PubChem BioAssay (NCI).

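48-hour exposure; five concentrations; linearly interpolated endpoints. At the GI50, growth is halved. TGI: total growth inhibition.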

Some test systems named below: SNB-75 CNS; SK-MEL-2 melanoma; HS 578T breast; OVCAR-3 ovarian; NCI-H522 lung; EKVX NSCLC; IGROV1 ovarian; NCI/ADR-RES ovarian; OVCAR-5 ovarian; HCT-116 colon.
Common to all, as to assay: NCI anticancer screen, dose series, 48 h

On to `CN(c1ccc(C#N)c(Cl)c1)C1CCC(NC(=O)c2ccc(N3CCN(C4CN(c5ccc6c(c5)C(=O)N(C5CCC(=O)NC5=O)C6=O)C4)CC3)cc2)CC1` (stereo not drawn), for which the GI50 with SNB-75 CNS, with SK-MEL-2 melanoma, with HS 578T breast, in the assay with OVCAR-3 ovarian, in the assay on NCI-H522 lung and in the assay with EKVX NSCLC was above 100 µM throughout. In addition, the GI50 was above 100 µM in the assay on IGROV1 ovarian, above 100 µM with NCI/ADR-RES ovarian, 47.6 µM in the assay with OVCAR-5 ovarian and above 100 µM in the assay on HCT-116 colon. Moreover, the TGI with SNB-75 CNS, in the assay on SK-MEL-2 melanoma, in the assay with HS 578T breast, with OVCAR-3 ovarian, in the assay with NCI-H522 lung and in the assay with EKVX NSCLC was above 100 µM each time. Besides, the TGI with IGROV1 ovarian, in the assay on NCI/ADR-RES ovarian, in the assay on OVCAR-5 ovarian and with HCT-116 colon was above 100 µM throughout.

With `Cc1ccc(Sc2oc(-c3ccc(C)cc3)nc2[P+](c2ccccc2)(c2ccccc2)c2ccccc2)cc1`, the GI50 with SNB-75 CNS is 0.154 µM; in the assay on SK-MEL-2 melanoma, 1.12 µM; in the assay with HS 578T breast it was 0.378 µM; with OVCAR-3 ovarian, 0.359 µM; in the assay with NCI-H522 lung, 0.148 µM; in the assay with EKVX NSCLC it was 0.296 µM. Moreover, the GI50 with NCI/ADR-RES ovarian was 0.49 µM; in the assay on OVCAR-5 ovarian, 0.416 µM; with HCT-116 colon, 0.26 µM. For the same compound, the TGI in the assay on SNB-75 CNS was 0.846 µM; in the assay on SK-MEL-2 melanoma, 2.63 µM; in the assay on HS 578T breast it was 1.98 µM; in the assay with OVCAR-3 ovarian, 1.33 µM; with NCI-H522 lung it was 0.379 µM; in the assay on EKVX NSCLC, 1.26 µM. In addition, the TGI amounted to 2.21 µM with NCI/ADR-RES ovarian, 1.59 µM with OVCAR-5 ovarian and 1.26 µM with HCT-116 colon.

For the compound `O=C1/C(=C/c2cccc(Br)c2)COc2ccc(O)c(O)c21`, the GI50 was 0.933 µM in the assay on SNB-75 CNS; 1.53 µM with SK-MEL-2 melanoma; 2.28 µM in the assay on HS 578T breast; 0.675 µM in the assay on OVCAR-3 ovarian; 0.175 µM in the assay with NCI-H522 lung; 1.78 µM in the assay with EKVX NSCLC. Also, the GI50 with IGROV1 ovarian is 0.996 µM; in the assay on NCI/ADR-RES ovarian, 2.03 µM; in the assay with OVCAR-5 ovarian, 1.93 µM; with HCT-116 colon, 1.08 µM. For the same compound, the TGI is 3.83 µM in the assay with SNB-75 CNS; 3.11 µM with SK-MEL-2 melanoma; 7.53 µM in the assay on HS 578T breast; 2.07 µM with OVCAR-3 ovarian; 0.361 µM in the assay on NCI-H522 lung; 3.52 µM in the assay on EKVX NSCLC. The TGI stood at 2.68 µM in the assay on IGROV1 ovarian, 10.3 µM with NCI/ADR-RES ovarian, 3.74 µM in the assay with OVCAR-5 ovarian and 2.47 µM in the assay on HCT-116 colon.

As for `Nc1n[nH]c(N)c1N=Nc1ccc(O)cc1`, the GI50 in the assay with SNB-75 CNS was 18.5 µM; in the assay with SK-MEL-2 melanoma, 14.4 µM; in the assay with HS 578T breast it was 21.8 µM; with OVCAR-3 ovarian it was 22.7 µM; in the assay on NCI-H522 lung, 24.3 µM; with EKVX NSCLC it was 22 µM. Moreover, the GI50 in the assay on IGROV1 ovarian is 20.6 µM; in the assay on NCI/ADR-RES ovarian it was 22.6 µM; with OVCAR-5 ovarian it was 23.5 µM; in the assay on HCT-116 colon, 18.9 µM. Besides, the TGI in the assay with SNB-75 CNS was 41.6 µM; with SK-MEL-2 melanoma, 57 µM; in the assay on HS 578T breast, 77.8 µM; with OVCAR-3 ovarian, 69.7 µM; with NCI-H522 lung, above 100 µM; in the assay on EKVX NSCLC, 67.8 µM. Also, the TGI with IGROV1 ovarian was 81.4 µM; in the assay with NCI/ADR-RES ovarian, 92.4 µM; in the assay with OVCAR-5 ovarian it was above 100 µM; with HCT-116 colon, 89.9 µM.

Take `O=c1cccc(C#CC#CCCCO)o1`: the GI50 is 18.2 µM in the assay on SNB-75 CNS; 12.6 µM in the assay on SK-MEL-2 melanoma; 9.68 µM with HS 578T breast; 1.93 µM in the assay on OVCAR-3 ovarian; 3.55 µM with NCI-H522 lung; 3 µM in the assay on EKVX NSCLC. The GI50 in the assay on IGROV1 ovarian was 2.65 µM; in the assay on NCI/ADR-RES ovarian it was 9.47 µM; with OVCAR-5 ovarian, 5.57 µM; with HCT-116 colon it was 3.06 µM. Besides, the TGI with SNB-75 CNS is 66.3 µM; in the assay with SK-MEL-2 melanoma it was above 100 µM; in the assay on HS 578T breast, 25.5 µM; with OVCAR-3 ovarian, 4.94 µM; in the assay on NCI-H522 lung, above 32 µM; in the assay on EKVX NSCLC, 7.6 µM. The TGI with IGROV1 ovarian was above 22.1 µM; in the assay with NCI/ADR-RES ovarian, above 44.2 µM; in the assay on OVCAR-5 ovarian it was 11.6 µM; in the assay on HCT-116 colon it was 8.49 µM.

In the case of `CCN1C(=O)N(CC)C2C1NN=c1s/c(=C\c3ccc[nH]3)c(=O)n12` (stereo not drawn), the GI50 in the assay with SNB-75 CNS was 0.14 µM; in the assay on SK-MEL-2 melanoma, 0.502 µM; with HS 578T breast, 0.335 µM; with OVCAR-3 ovarian, 0.279 µM; in the assay with NCI-H522 lung it was 0.244 µM; with EKVX NSCLC it was 0.852 µM. The GI50 with IGROV1 ovarian is 0.838 µM; in the assay with NCI/ADR-RES ovarian, 0.413 µM; with OVCAR-5 ovarian it was 1.59 µM; in the assay on HCT-116 colon, 0.453 µM. In addition, the TGI with SNB-75 CNS was 0.598 µM; in the assay with SK-MEL-2 melanoma, above 100 µM; in the assay with HS 578T breast, above 100 µM; in the assay on OVCAR-3 ovarian, 0.948 µM; in the assay with NCI-H522 lung, 8.34 µM; in the assay with EKVX NSCLC, above 100 µM. In addition, the TGI in the assay with IGROV1 ovarian, in the assay with NCI/ADR-RES ovarian, in the assay with OVCAR-5 ovarian and with HCT-116 colon was above 100 µM each time.

As for `Nc1ncccc1-c1nc2ccc(-c3ccccc3)nc2n1-c1ccc(C2(N)CCC2)cc1`, the GI50 in the assay with SNB-75 CNS was 0.0859 µM; with SK-MEL-2 melanoma, 1.65 µM; in the assay on HS 578T breast, 0.253 µM; with OVCAR-3 ovarian it was 0.353 µM; with NCI-H522 lung, 1.53 µM; in the assay with EKVX NSCLC it was 1.92 µM. Also, the GI50 in the assay on IGROV1 ovarian is 0.0342 µM; in the assay with NCI/ADR-RES ovarian it was 2.43 µM; with OVCAR-5 ovarian, 1.53 µM; in the assay on HCT-116 colon, 1.43 µM. Besides, the TGI in the assay on SNB-75 CNS was found to be 1.7 µM; with SK-MEL-2 melanoma, 3.54 µM; with HS 578T breast it was 2.31 µM; with OVCAR-3 ovarian, 10.6 µM; in the assay with NCI-H522 lung, 3.47 µM; in the assay with EKVX NSCLC it was 16.2 µM. For the same compound, the TGI with IGROV1 ovarian was 0.863 µM; in the assay with NCI/ADR-RES ovarian it was 14.6 µM; in the assay on OVCAR-5 ovarian, 8.23 µM; in the assay with HCT-116 colon it was 2.91 µM.
